Measurements published in patent publication US20130072523A1, “ANALOGUES FOR THE TREATMENT OR PREVENTION OF FLAVIVIRUS INFECTIONS” (VERTEX PHARMACEUTICALS INCORPORATED, priority 2009, published 2013).

Test system: HCV 1b genotype
Experiment: Cell-based luciferase reporter HCV (Ib) RNA replication assay (Huh-ET replicon cells)
Conditions: Hepatitis C virus, 96 h; HCV 1b genotype replicon, 4 days incubation, luciferase readout
Excerpt: Cell-Based Luciferase Reporter HCV (Ib) RNA Replication Assay Cell Culture
Replicon cell lines Huh-5.2 are derived from the Huh-7 hepatocarcinoma cell line are maintained in culture as generally described in Krieger, N; Lohmann, V; Bartenschlager, R. Enhancement of hepatitis C virus RNA replication by cell culture-adaptive mutations. J. Virol. 2001, 75, 4614-4624. The Huh-5.2 cells contain the highly cell culture-adapted replicon I389 Luc-ubi-neo/NS3-375.1 construct that carries, in addition to the neomycin gene, an integrated copy to the firefly luciferase gene (Krieger, N; Lohmann, V; Bartenschlager, R. Enhancement of hepatitis C virus RNA replication by cell culture-adaptive mutations. J. Virol. 2001, 75, 4614-4624). This cell line allows measurement of HCV RNA replication and translation by measuring luciferase activity. It has been previously shown that the luciferase activity tightly follows the replicon RNA level in these cells (Krieger, N; Lohmann, V; Bartenschlager, R. Enhancement of hepatitis C virus RNA replication by cell culture-adaptive mutations. J. Virol. 2001, 75, 4614-4624). The Huh-ET cell line has the same features as those mentioned for Huh-5.2 cell line, except that ET cells are more robust and contain an adaptative mutation in the HCV NS4B gene instead of NS5A. Both cell lines are maintained in cultures at a sub-confluent level (<85%) as the level of replicon RNA is highest in actively proliferating cells. The culture media used for cell passaging consist of DMEM (Gibco BRL Laboratories, Mississauga, ON, Canada) supplemented with 10% foetal bovine serum with 1% penicilin/streptomycin, 1% glutamine, 1% sodium pyruvate, 1% non-essential amino acids, and 180 μg/ml of G418 final concentration. Cells are incubated at 37° C., in an atmosphere of 5% CO2 and passaged twice a week to maintain sub-confluence.
Approximately 3000 viable Huh-ET cells (100 μl) are plated per well in a white opaque 96-well microtiter plate. The cell culture media used for the assay is the same as described above except that it contains no G418 and no phenol red. After an incubation period of 3-4 hours at 37° C. in a 5% CO2 incubator, compounds (100 μl) are added at various concentrations. Cells are then further incubated for 4 days at 37° C. in a 5% CO2 incubator. Thereafter, the culture media is removed and cells are lysed by the addition of 95 μL of the luciferase buffer (luciferin substrate in buffered detergent). Cell lysates are incubated at room temperature and protected from direct light for at least 10 minutes. Plates are read for luciferase counts using a luminometer (Wallac MicroBeta Trilux, Perkin Elmer™, MA, USA).
The 50% inhibitory concentrations (IC50s) for inhibitory effect are determined from dose response curves using eleven concentrations per compound in duplicate. Curves are fitted to data points using nonlinear regression analysis, and IC50s are interpolated from the resulting curve using GraphPad Prism software, version 2.0 (GraphPad Software Inc., San Diego, Calif., USA).
EC50 ranges are presented in micromolar as follows: μM+++<=0.005<++<=5.0<+.

| SMILES | IC50 |
| --- | --- |
| COC(=O)N[C@H](C(=O)N1C[C@@H](C)C[C@H]1c1ncc(C#Cc2ccc(C#Cc3cnc([C@@H]4C[C@H](C)CN4C(=O)[C@@H](NC(=O)OC)C(C)C)[nH]3)cc2)[nH]1)C(C)C [Compound 4] | ≤ 5 nM |
| COC(=O)N[C@H](C(=O)N1C[C@@H](C)C[C@H]1c1ncc(-c2ccc(-c3ccc(-c4cnc([C@@H]5C[C@H](C)CN5C(=O)[C@@H](NC(=O)OC)C(C)C)[nH]4)cc3)cc2)[nH]1)C(C)C [Compound 1] | ≤ 5 nM |
| COC(=O)N[C@H](C(=O)N1C[C@@H](C)C[C@H]1c1nc(CO)c(C#Cc2ccc(C#Cc3[nH]c([C@@H]4C[C@H](C)CN4C(=O)[C@@H](NC(=O)OC)C(C)C)nc3CO)cc2)[nH]1)C(C)C [Compound 59] | 5 to 5000 nM |
| COC(=O)N[C@H](C(=O)N1CC(C)(C)C[C@H]1c1ncc(C#Cc2ccc(C#Cc3cnc([C@@H]4CC(C)(C)CN4C(=O)[C@@H](NC(=O)OC)C(C)C)[nH]3)cc2)[nH]1)C(C)C [Example 43] | ≤ 5 nM |
| COC(=O)N[C@H](C(=O)N1C[C@@H](C)C[C@H]1c1nc(C)c(C#Cc2cc3sc(C#Cc4[nH]c([C@@H]5C[C@H](C)CN5C(=O)[C@@H](NC(=O)OC)C(C)C)nc4C)cc3s2)[nH]1)C(C)C [Compound 66] | ≤ 5 nM |
| COC(=O)N[C@H](C(=O)N1C[C@@H](C)C[C@@H]1c1ncc(C#Cc2ccc(C#Cc3cnc([C@@H]4C[C@H](C)CN4C(=O)[C@@H](NC(=O)OC)C(C)C)[nH]3)cc2)[nH]1)C(C)C [Compound 52] | 5 to 5000 nM |
| COC(=O)N[C@H](C(=O)N1C[C@@H](C)C[C@H]1c1nc(-c2ccc3cc(-c4c[nH]c([C@@H]5C[C@H](C)CN5C(=O)[C@@H](NC(=O)OC)C(C)C)n4)ccc3c2)c[nH]1)C(C)C [Compound 49] | ≤ 5 nM |
| COC(=O)N[C@H](C(=O)N1CC(C)(C)C[C@H]1c1nc(C)c(C#Cc2ccc(C#Cc3[nH]c([C@@H]4CC(C)(C)CN4C(=O)[C@@H](NC(=O)OC)C(C)C)nc3C)cc2)[nH]1)C(C)C [Example 30] | ≤ 5 nM |
| COC(=O)N[C@@H](C(=O)N1C[C@@H](C)C[C@H]1c1ncc(C#Cc2ccc(C#Cc3cnc([C@@H]4C[C@H](C)CN4C(=O)[C@H](NC(=O)OC)C(C)C)[nH]3)cc2)[nH]1)C(C)C [Compound 32] | 5 to 5000 nM |
| C[C@H]1C[C@@H](c2ncc(C#Cc3ccc(C#Cc4cnc([C@@H]5C[C@H](C)CN5C(=O)OC(C)(C)C)[nH]4)cc3)[nH]2)N(C(=O)OC(C)(C)C)C1 [Compound 23] | 5 to 5000 nM |
| COC(=O)N[C@H](C(=O)N1C[C@@H](C)C[C@H]1c1ncc(-c2ccc(-c3cc4sc(-c5cnc([C@@H]6C[C@H](C)CN6C(=O)[C@@H](NC(=O)OC)C(C)C)[nH]5)cc4s3)cc2)[nH]1)C(C)C [Compound 69] | ≤ 5 nM |
| COC(=O)N[C@H](C(=O)N1C[C@@H](C)C[C@H]1c1nc(CCc2ccc(CCc3c[nH]c([C@@H]4C[C@H](C)CN4C(=O)[C@@H](NC(=O)OC)C(C)C)n3)cc2)c[nH]1)C(C)C [Compound 17] | 5 to 5000 nM |
| COC(=O)N[C@H](C(=O)N1C[C@@H](C)C[C@H]1c1nc(C#CC#Cc2c[nH]c([C@@H]3C[C@H](C)CN3C(=O)[C@@H](NC(=O)OC)C(C)C)n2)c[nH]1)C(C)C [Compound 53] | ≤ 5 nM |
| COC(=O)N[C@H](C(=O)N1C[C@@H](C)C[C@H]1c1nc(C#Cc2ccc3nc(C#Cc4c[nH]c([C@@H]5C[C@H](C)CN5C(=O)[C@@H](NC(=O)OC)C(C)C)n4)ccc3c2)c[nH]1)C(C)C [Compound 55] | ≤ 5 nM |
| COC(=O)N[C@H](C(=O)N1C[C@@H](C)C[C@H]1c1ncc(C#Cc2ccc(C#Cc3cnc([C@@H]4C[C@H](C)CN4C(=O)[C@@H](NC(=O)OC)C(C)C)[nH]3)nc2)[nH]1)C(C)C [Compound 56] | ≤ 5 nM |

Test system: sub-genomic HCV replicon of genotype 1a
Experiment: Activity determination using the ELISA and the sub-genomic replicon 1a cell line (NS5A protein level, W11.8 cells)
Assay type: cell-based
Conditions: Hepatitis C virus, W11.8, 96 h, drug treatment for four days
Excerpt: Activity Determination Using the ELISA and the Sub-Genomic Replicon 1a Cell Line
The cell line W11.8 containing the sub-genomic HCV replicon of genotype 1a is used to determine the potency of the drugs. The RNA replication in presence of different drug concentrations is indirectly measured in this cell line by the level of NS5A protein content upon drug treatment for four days. It is shown that the level of the NS5A protein correlates well with the level of HCV RNA in the replicon cell line. Cells are split twice a week in order to keep the confluence state below 85% of the culture flask surface area. The culture media used for cell passaging consists of DMEM-10% foetal bovine serum with 100 UI/mL penicillin, 100 μg/mL streptomycin, 2 mM glutamine, 1 mM sodium pyruvate, non-essential amino acids (1×) and 600 μg/mL of G418 final concentrations. Monolayer of the W11.8 cells is trypsinized and cells are counted. Cells are diluted at 50,000 cells/mL with complete DMEM without G418, then approximately 5,000 viable cells (100 μL) are plated per well in a white opaque 96-well microtiter plate. After an incubation period of 2-4 hours at 37° C. in a 5% CO2 incubator, compounds are added at various concentrations. Drugs are resuspended in DMSO at a stock concentration of 10 mM. Then, drugs are serially diluted at twice the final concentration in the same medium. One volume (100 μL) of each drug dilution is then added to each well that contains cells.
A control compound is used as an internal standard for each plate assay. Sixteen wells are used as control (0% inhibition) without drug. […] Values from 100% inhibited wells were averaged and used as the background value. Cells are further incubated for four days at 37° C. in a 5% CO2 incubator. Following the incubation time of four days, the media is removed and wells are washed once with 150 μL of PBS at room temperature for five minutes. Cells are then fixed for five minutes using 150 μL per well of cold (−20° C.) fixative solution (50% methanol/50% acetone mix). Cells are then washed twice with 150 μL of PBS (phosphate buffered saline) per well, following the addition of 150 μL of blocking solution, cells are incubated for one hour at 37° C. to block non-specific sites. The blocking solution is removed and cells are washed twice with 150 μL of PBS per well and once with 150 μL of PBSTS solution (PBS/0.1% Triton X-100/0.02% SDS) per well. Then, 50 μL of mouse monoclonal anti-NS5A antibody (Santa Cruz, Cat. No. sc-52417) is added in each well, diluted 1/1,000 in the blocking solution and incubated at 4° C. overnight. Next day, media is removed and plates are washed five times with 150 μL of PBS per well with five-minute incubations at room temperature. Then 50 μL per well of peroxidase-conjugated donkey anti-mouse antibody (Jackson Immunoresearch, Cat. No. 715-036-150) diluted 1/10,000 in the blocking solution is added and incubated at room temperature for three hours on a shaker (500 rpm). Plates are washed four times with 150 μL of PBSTS solution per well and once with 150 μL of PBS. Then, substrate solution (100 μl, SuperSignal ELISA Pico Chemiluminescent Substrate, Fisher Cat. No. 37069) is added in each well and plates are incubated 60 minutes at room temperature prior to reading the luminescence (relative light units) on the Analyst HT plate reader. The percentage of inhibition at each drug concentration tested (in duplicate) is calculated. […]

| SMILES | IC50 |
| --- | --- |
| COC(=O)N[C@H](C(=O)N1CCC[C@H]1c1ncc(-c2ccc(-c3ccc(-c4cnc([C@@H]5CCCN5C(=O)[C@@H](NC(=O)OC)C(C)C)[nH]4)cc3)cc2)[nH]1)C(C)C | 0.05 nM |
| COC(=O)N[C@H](C(=O)N1C[C@@H](C)C[C@H]1c1ncc(C#Cc2ccc(C#Cc3cnc([C@@H]4C[C@H](C)CN4C(=O)[C@@H](NC(=O)OC)C(C)C)[nH]3)cc2)[nH]1)C(C)C [Compound 4] | 0.055 nM |
| COC(=O)N[C@H](C(=O)N1C[C@@H](C)C[C@H]1c1ncc(-c2ccc(-c3ccc(-c4cnc([C@@H]5C[C@H](C)CN5C(=O)[C@@H](NC(=O)OC)C(C)C)[nH]4)cc3)cc2)[nH]1)C(C)C [Compound 1] | 0.017 nM |
| COC(=O)N[C@H](C(=O)N1CCC[C@H]1c1ncc(C#Cc2ccc(C#Cc3cnc([C@@H]4CCCN4C(=O)[C@@H](NC(=O)OC)C(C)C)[nH]3)cc2)[nH]1)C(C)C | 4.8 nM |
| COC(=O)N[C@H](C(=O)N1[C@@H](C)CC[C@H]1c1ncc(C#Cc2ccc(C#Cc3cnc([C@@H]4CC[C@H](C)N4C(=O)[C@@H](NC(=O)OC)C(C)C)[nH]3)cc2)[nH]1)C(C)C [drawing 272] | 0.24 nM |
